Reference: patent publication US20220323437A1, “METHODS FOR TREATING PULMONARY ARTERIAL HYPERTENSION” (ACTELION PHARMACEUTICALS LTD, priority 2019, published 2022)
Read-outs that look alike come from different tables or passages of the source.

Key:
[1] = Pharmacokinetics of selexipag and ACT-333679 after oral and i.v. selexipag in subjects with stable PAH (Phase 3 switch study); type: in vivo, human; conditions: for AUC / Cmax: human, plasma, steady state; for AUC: read-out: AUCτ, ss Geom. Mean; for Cmax: read-out: Cmax, ss Geom. Mean
Procedure: This was a prospective, multicenter, open-label, single-sequence, cross-over, Phase 3 study. Based on the dose of selexipag received at study entry, subjects were allocated to one of the following groups, selexipag 200-1000 μg b.i.d. or selexipag 1200-1600 μg b.i.d. See, FIG. 1. The study comprised the following periods:
(ii) Treatment and observation period: The treatment and observation period included the following consecutive periods: • Period 1 included oral selexipag pre-treatment period for 1 day, in-hospital. This period started with intake of the morning dose of oral selexipag on Day 1 at Visit 2 and ended the following day, before initiation of the first infusion of i.v. selexipag. • Period 2 included i.v. selexipag treatment period for 36 hours [3 infusions], in-hospital. This period started in the morning of Day 2 at Visit 2 with the start of the first infusion of i.v. selexipag and ended in the evening of Day 3 at Visit 2 before the evening administration of oral selexipag. Administration of oral selexipag was interrupted during the i.v. selexipag treatment period. • Period 3 included oral selexipag post-treatment period for 7 to 11 day. This period started in the evening of Day 3 at Visit 2 with the administration of oral selexipag and ended 7-11 days later, at Visit 3.
Selexipag was provided as a dry powder to be reconstituted as an injectable solution for i.v. administration. Before administration, selexipag dry powder was to be reconstituted and diluted with sterile 0.9% NaCl solution. Each subject received an i.v. selexipag dose that corresponded to the subject's individual stable dose of oral selexipag. […] See, Table 4.
The intravenous infusion took place over a 87-minute period (2 infusions on Day 2 and 1 infusion on Day 3)
The following PK endpoints were analyzed for selexipag and its active metabolite, ACT-333679, after oral selexipag in Period 1 and after i.v. selexipag administration in Period 2. See, FIG. 2. • The area under the plasma-concentration time curve (AUC) during a dose interval at steady state (AUCτ, ss). • The maximum plasma concentration at steady state (Cmax, ss). • The time to reach maximum plasma concentration at steady state (tmax, ss). • Trough plasma concentration at steady state (Ctrough, ss).

[2] = Vital signs, ECG, laboratory variables and WHO FC during switch from oral to i.v. selexipag in subjects with stable PAH; type: in vivo, human
Procedure: This was a prospective, multicenter, open-label, single-sequence, cross-over, Phase 3 study. Based on the dose of selexipag received at study entry, subjects were allocated to one of the following groups, selexipag 200-1000 μg b.i.d. or selexipag 1200-1600 μg b.i.d. See, FIG. 1. The study comprised the following periods: (ii) Treatment and observation period: The treatment and observation period included the following consecutive periods: • Period 1 included oral selexipag pre-treatment period for 1 day, in-hospital. This period started with intake of the morning dose of oral selexipag on Day 1 at Visit 2 and ended the following day, before initiation of the first infusion of i.v. selexipag. • Period 2 included i.v. selexipag treatment period for 36 hours [3 infusions], in-hospital. This period started in the morning of Day 2 at Visit 2 with the start of the first infusion of i.v. selexipag and ended in the evening of Day 3 at Visit 2 before the evening administration of oral selexipag. Administration of oral selexipag was interrupted during the i.v. selexipag treatment period. • Period 3 included oral selexipag post-treatment period for 7 to 11 day. This period started in the evening of Day 3 at Visit 2 with the administration of oral selexipag and ended 7-11 days later, at Visit 3. The endpoints analyzed for (i) Period 1, Period 2, and Period 3 and follow-up period combined (ii) Period 1 and Period 2 combined, and (iii) Period 2 and Period 3 combined included discontinuations due to prostacyclin-associated AEs, discontinuations due to any AEs, AEs and SAEs, prostacyclin-associated AEs, PAH-related AEs, change from baseline in vital signs (systolic blood pressure [SBP], diastolic blood pressure [DBP], and pulse rate) and body weight, ECG abnormalities, marked laboratory abnormalities, and change from baseline in WHO FC.

[3] = selexipag versus placebo; cited from earlier work
[4] = Period 1 (oral selexipag), total, N = 20
[5] = Period 2 (iv selexipag), total, N = 20
[6] = Period 2, high dose cohort (1200-1600 μg), N = 12
[7] = Period 2, low dose cohort (200-1000 μg), N = 8
[8] = Period 3 (oral selexipag) + Follow-up, total, N = 20

## CC(C)N(CCCCOCC(=O)NS(C)(=O)=O)c1cnc(-c2ccccc2)c(-c2ccccc2)n1 [selexipag, 2-{4-[(5,6-diphenylpyrazin-2-yl)(propan-2-yl)amino]butoxy}-N-(methanesulfonyl)acetamide]
[1]; Period 2 vs Period 1
  tmax, ss between the i.v. and oral selexipag periods: comparable
[1]; after i.v. selexipag, 450-1800 μg b.i.d. dose range
  slope of dose proportional increase in exposure: 0.798
[1]; iv, Period 2 (i.v. selexipag)
  AUC: 18.8 ng·h/mL
  Cmax: 7.8 ng/mL
[1]; Period 1 (oral selexipag)
  AUC: 8.7 ng·h/mL
  Cmax: 3.9 ng/mL
[1]; i.v. to oral dose ratio 1.125
  dose-normalized geometric mean ratio (i.v./oral selexipag) for AUCτ, ss (90% CI): 2.13 (1.67, 2.70)
  dose-normalized geometric mean ratio (i.v./oral selexipag) for Cmax, ss (90% CI): 1.98 (1.62, 2.43)
[2]; [4]
  Incidence of DBP < 50 (mmHg): 0 n (%)
  Incidence of DBP decrease from baseline > 20 (mmHg): 1 (5.0) n (%)
  Incidence of DBP ≥ 100 (mmHg): 0 n (%)
  Incidence of SBP < 90 (mmHg): 0 n (%)
  Incidence of SBP decrease from baseline > 40 (mmHg): 0 n (%)
  Incidence of SBP ≥ 160 (mmHg): 0 n (%)
[2]; Period 2
  subjects with QTcF prolongation to >450 ms: 3 subjects
  subjects with QTcF prolongation to >480 ms: 4 subjects
[2]; [5]
  Incidence of DBP < 50 (mmHg): 5 n (%)
  Incidence of DBP decrease from baseline > 20 (mmHg): 3 n (%)
  Incidence of DBP ≥ 100 (mmHg): 0 n (%)
  Incidence of SBP < 90 (mmHg): 2 n (%)
  Incidence of SBP decrease from baseline > 40 (mmHg): 2 n (%)
  Incidence of SBP ≥ 160 (mmHg): 1 n (%)
[2]; Period 2, infusion 1
  mean change from pre- to post-infusion in heart rate: 2.1 bpm
[2]; Period 2, infusion 2
  mean change from pre- to post-infusion in heart rate: 0.1 bpm
[2]; Period 2, infusion 3
  mean change from pre- to post-infusion in heart rate: 3.5 bpm
[2]; [6]
  Incidence of DBP < 50 (mmHg): 3 n (%)
  Incidence of DBP decrease from baseline > 20 (mmHg): 2 n (%)
  Incidence of DBP ≥ 100 (mmHg): 0 n (%)
  Incidence of SBP < 90 (mmHg): 1 n (%)
  Incidence of SBP decrease from baseline > 40 (mmHg): 1 n (%)
  Incidence of SBP ≥ 160 (mmHg): 1 n (%)
[2]; [7]
  Incidence of DBP < 50 (mmHg): 2 (25.0) n (%)
  Incidence of DBP decrease from baseline > 20 (mmHg): 1 (12.5) n (%)
  Incidence of DBP ≥ 100 (mmHg): 0 n (%)
  Incidence of SBP < 90 (mmHg): 1 (12.5) n (%)
  Incidence of SBP decrease from baseline > 40 (mmHg): 1 (12.5) n (%)
  Incidence of SBP ≥ 160 (mmHg): 0 n (%)
[2]; [8]
  Incidence of DBP < 50 (mmHg): 0 n (%)
  Incidence of DBP decrease from baseline > 20 (mmHg): 2 (10.0) n (%)
  Incidence of DBP ≥ 100 (mmHg): 0 n (%)
  Incidence of SBP < 90 (mmHg): 0 n (%)
  Incidence of SBP decrease from baseline > 40 (mmHg): 0 n (%)
  Incidence of SBP ≥ 160 (mmHg): 0 n (%)
[2]; Visit 2 Day 2 prior to the start of i.v. infusion
  subjects (of the 7 with QTcF prolongation in Period 2) who already had QTcF prolongation to >450 ms in Period 1: 6
[2]; any subject
  AE of hypotension: no AE of hypotension
  changes in systolic blood pressure of >40 mmHg: No changes
[2]; at Visit 3 (Day 12±2 days)
  hemoglobin, mean change from baseline: 1.2 g/L
[2]; baseline (129.4 g/L) to Visit 2 Day 3
  hemoglobin, mean change from baseline: -5.7 g/L
[2]; during the study, any subject
  changes in WHO FC: No changes
[2]; human, in vivo
  changes from baseline in other hematology and clinical chemistry variables: unremarkable
[3]
  risk of the primary composite end point of death or a complication related to pulmonary arterial hypertension: significantly lower
